Results reported in patent US20150030706A1, “USE OF ESSENTIAL OILS, SUPERCRITICAL EXTRACTS AND AQUEOUS RESIDUES GENERATED DURING A PROCESS FOR OBTAINING ORGANIC EXTRACTS FROM THE ARTEMISIA ABSINTHIUM L. PLANT” (CONSEJO SUPERIOR DE INVESTIGACIONES CIENTIFICAS (CSIC), priority 2012, published 2015).

Test system: Meloidogyne javanica
Experiment: Nematicide activity against infective juveniles (J2)
Type: in vivo
Description: The assays were carried out according to the methodology described for Meloidogyne sp (Hernández-Carlos et al. 2011, Sosa et al. 2012) using the biological stage of infected juvenile (J2) Meloidogyne javanica in the assays. The activity of each product was quantified at different concentrations, shown in Table 5 and in at least four copies, each bio-assay was repeated at least three times and the nematostatic/nematicide activity was determined from the percentage of infected juvenile plants immobilised/which died.

Structure (SMILES): C=C/C(C)=C\CC(O)C(C)(C)O (stereo not shown) [(Z)-2,6-dimethylocta-5,7-diene-2,3-diol]
- M. javanica % J2 immobilised Average (Concentration 0.02 μg/μl): 4.2%
- M. javanica % J2 immobilised Average (Concentration 0.1 μg/μl): 19.7%
- M. javanica % J2 immobilised Average (Concentration 0.25 μg/μl): 43.9%
- M. javanica % J2 immobilised Average (Concentration 0.5 μg/μl): 100%
